In the supplement of paper PMC10627819:

Assays:
Test in all cases: Bliss interaction score (quartile over a dose matrix) (fitness difference); higher = more antagonism (negative = synergy)
B. subtilis 168 = test system: B. subtilis 168
In short: (§1)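 Combination data were used to infer fitness under each single drug. Fitness is the OD595 at entry into stationary phase divided by the robust mean of the plate's no-drug wells, with a cap of 1. The Bliss score is the observed minus the expected product fitness, summarised by quartiles over technical, biological and donor/recipient replicates.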

S. aureus DSM 20231 = test system: S. aureus DSM 20231
In short: as §1

S. aureus Newman = test system: S. aureus Newman
In short: as §1

S. pneumoniae D39V = test system: S. pneumoniae D39V
In short: as §1
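Also: first quartile when negative (synergy) and third quartile when positive (antagonism).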

Row | Compound | Bliss interaction score (B. subtilis 168) | Bliss interaction score (S. aureus DSM 20231) | Bliss interaction score (S. aureus Newman) | Bliss interaction score (S. pneumoniae D39V) | Bliss interaction score (B. subtilis 168; main component drawn) | Bliss interaction score (S. aureus DSM 20231; main component drawn) | Bliss interaction score (S. aureus Newman; main component drawn) | Bliss interaction score (S. pneumoniae D39V; main component drawn)
1 | CO/N=C(\C(=O)N[C@@H]1C(=O)N2C(C(=O)O)=C(COC(N)=O)CS[C@H]12)c1ccco1 [Cefuroxime] + CC1(C)S[C@@H]2[C@H](NC(=O)Cc3ccccc3)C(=O)N2[C@H]1C(=O)O [PenicillinG] | -0.0758 | -0.154 | 0.102 | -0.0476 | – | – | – | –
2 | CC(=O)Oc1ccccc1C(=O)O [Acetylsalicylicacid] + Cn1nnc(-c2ccc(-c3ccc(N4C[C@H](CO)OC4=O)cc3F)cn2)n1 [Tedizolid] | -0.184 | -0.124 | 0.0641 | 0.0802 | – | – | – | –
3 | CC(=O)Oc1ccccc1C(=O)O [Acetylsalicylicacid] + C[C@@H]1O[C@@H]1P(=O)(O)O [Fosfomycin] | -0.291 | 0.0721 | -0.0772 | 0.119 | – | – | – | –
4 | CC1(C)S[C@@H]2[C@H](NC(=O)Cc3ccccc3)C(=O)N2[C@H]1C(=O)O [PenicillinG] + CN[C@@H]1[C@H](O)[C@H](NC)[C@H]2O[C@@]3(O)C(=O)C[C@@H](C)O[C@H]3O[C@@H]2[C@H]1O [Spectinomycin] | 0.0272 | -0.0365 | -0.0496 | 0.0325 | – | – | – | –
5 | C[C@H]1c2cccc(O)c2C(=O)C2=C(O)[C@]3(O)C(=O)C(C(N)=O)=C(O)[C@@H](N(C)C)[C@@H]3[C@@H](O)[C@@H]21 [Doxycycline] + CO[C@@]12[C@H](COC(N)=O)C3=C(C(=O)C(C)=C(N)C3=O)N1C[C@@H]1N[C@@H]12 [MitomycinC] | 0.0704 | -0.0478 | 0.0515 | -0.0943 | – | – | – | –
6 | CN(C)[C@@H]1C(O)=C(C(N)=O)C(=O)[C@@]2(O)C(O)=C3C(=O)c4c(O)ccc(Cl)c4[C@@](C)(O)[C@H]3C[C@@H]12 [Clortetracycline] + CN[C@@H]1[C@H](O)[C@H](NC)[C@H]2O[C@@]3(O)C(=O)C[C@@H](C)O[C@H]3O[C@@H]2[C@H]1O [Spectinomycin] | -0.0478 | -0.0598 | -0.0716 | 0.0439 | – | – | – | –
7 | N#CC(C#N)=NNc1cccc(Cl)c1 [CCCP] + O=C(O[C@@H]1Cc2c(O)cc(O)cc2O[C@@H]1c1cc(O)c(O)c(O)c1)c1cc(O)c(O)c(O)c1 [EGCG] | -0.0905 | -0.0526 | -0.0367 | 0.105 | – | – | – | –
8 | N#CC(C#N)=NNc1cccc(Cl)c1 [CCCP] + C/C(=C\C(=O)OCCCCCCCCC(=O)O)C[C@@H]1OC[C@H](C[C@@H]2O[C@H]2[C@@H](C)[C@H](C)O)[C@@H](O)[C@H]1O [Pseudomonic acid] | -0.137 | 0.0141 | -0.0111 | 0.0939 | – | – | – | –
9 | CN(C)[C@@H]1C(O)=C(C(N)=O)C(=O)[C@@]2(O)C(O)=C3C(=O)c4c(O)ccc(Cl)c4[C@@](C)(O)[C@H]3C[C@@H]12 [Clortetracycline] + COc1cc(Cc2cnc(N)nc2N)cc(OC)c1OC [Trimethoprim] | 0.135 | 0.0736 | 0.102 | -0.0376 | – | – | – | –
10 | CC(=O)Oc1ccccc1C(=O)O [Acetylsalicylicacid] + CCC[C@@H]1C[C@@H](C(=O)N[C@@H]([C@H]2O[C@H](SC)[C@H](O)[C@@H](O)[C@H]2O)[C@H](C)Cl)N(C)C1 [Clindamycin] | 0.0404 | 0.0574 | 0.0829 | -0.105 | – | – | – | –
11 | N#CC(C#N)=NNc1cccc(Cl)c1 [CCCP] + CO/N=C(\C(=O)N[C@@H]1C(=O)N2C(C(=O)O)=C(COC(C)=O)CS[C@H]12)c1csc(N)n1 [Cefotaxime] | 0.139 | 0.0268 | 0.0493 | -0.112 | – | – | – | –
12 | C[C@@H]1O[C@@H]1P(=O)(O)O [Fosfomycin] + CC1(C)S[C@@H]2[C@H](NC(=O)Cc3ccccc3)C(=O)N2[C@H]1C(=O)O [PenicillinG] | -0.0401 | -0.136 | 0.0465 | -0.0713 | – | – | – | –
13 | N#CC(C#N)=NNc1cccc(Cl)c1 [CCCP] + CCC[C@@H]1C[C@@H](C(=O)N[C@@H]([C@H]2O[C@H](SC)[C@H](O)[C@@H](O)[C@H]2O)[C@@H](C)O)N(C)C1 [Lincomycin] | -0.0311 | -0.0627 | 0.116 | 0.0513 | – | – | – | –
14 | O=C(O)c1cn(C2CC2)c2cc(N3CCNCC3)c(F)cc2c1=O [Ciprofloxacin] + CC(=O)O[C@H]1C[C@@]2(C)[C@@H](C[C@@H](O)[C@H]3[C@@]4(C)CC[C@@H](O)[C@@H](C)[C@@H]4CC[C@@]32C)/C1=C(\CCC=C(C)C)C(=O)O [Fusidic acid] | 0.19 | 0.04 | 0.0831 | 0.0674 | – | – | – | –
15 | CC(=O)Oc1ccccc1C(=O)O [Acetylsalicylicacid] + CC(C1CCC(C(O1)OC2C(CC(C(C2O)OC3C(C(C(CO3)(C)O)NC)O)N)N)N)NC [Gentamicin] | – | – | – | – | 0.286 | 0.165 | 0.0614 | 0.0535
16 | N#CC(C#N)=NNc1cccc(Cl)c1 [CCCP] + CO[C@@]12[C@H](COC(N)=O)C3=C(C(=O)C(C)=C(N)C3=O)N1C[C@@H]1N[C@@H]12 [MitomycinC] | -0.051 | -0.0844 | -0.0345 | -0.0605 | – | – | – | –
